# Results taken from patent publication US8003660B2, “Modulators of muscarinic receptors” (Vertex Pharmaceuticals Incorporated, priority 2006, dated 2011).
# Columns and labels:
# Format in all cases: cell-based
# [1] = target: T1, M3 muscarinic receptor (Homo sapiens, UniProt P20309); assay: Functional mobilization of intracellular calcium (FLIPR) in CHO cells expressing M3; details: for M3 Activity: CHO cells expressing M3, FLIPR calcium assay; for Emax: CHO, 100% efficacy = maximum response obtained with the Carbachol control
# T1 construct: expressed in transfected cells; host or cells: CHO (M3-CHO)
# T1 sequence (P20309 whole entry): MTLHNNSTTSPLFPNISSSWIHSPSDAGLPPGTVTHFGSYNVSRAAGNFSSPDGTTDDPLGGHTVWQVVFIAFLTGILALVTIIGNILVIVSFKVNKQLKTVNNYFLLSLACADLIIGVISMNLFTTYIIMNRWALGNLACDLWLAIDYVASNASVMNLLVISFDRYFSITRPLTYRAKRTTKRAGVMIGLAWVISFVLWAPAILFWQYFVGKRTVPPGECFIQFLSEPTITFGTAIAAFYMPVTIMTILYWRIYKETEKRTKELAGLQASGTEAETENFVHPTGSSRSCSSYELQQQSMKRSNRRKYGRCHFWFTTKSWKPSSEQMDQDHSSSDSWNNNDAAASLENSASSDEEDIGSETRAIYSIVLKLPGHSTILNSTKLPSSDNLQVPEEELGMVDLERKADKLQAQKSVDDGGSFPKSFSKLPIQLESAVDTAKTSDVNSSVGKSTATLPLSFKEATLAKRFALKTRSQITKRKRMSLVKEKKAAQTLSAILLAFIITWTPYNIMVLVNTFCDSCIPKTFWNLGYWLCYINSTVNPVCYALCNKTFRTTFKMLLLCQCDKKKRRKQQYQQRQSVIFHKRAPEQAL
# How it was run: (§1)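 Calcium flux is read on FLIPR over 60 sec at 488/540 nm in muscarinic-receptor CHO lines. Antagonist mode adds carbachol at EC80 after 15 min compound preincubation or with simultaneous co-application. Agonist mode adds compound alone. Cells carry Fluo-3 or Calcium 3 dye in probenecid-containing pH 7.4 buffer, 0.5% DMSO final.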
# [2] = target: T2, M1 muscarinic receptor (Homo sapiens, UniProt P11229); assay: Functional mobilization of intracellular calcium (FLIPR) in CHO cells expressing M1; details: for M1 Activity: CHO cells expressing M1, FLIPR calcium assay; for Emax: CHO, 100% efficacy = maximum response obtained with the Carbachol control
# T2 construct: expressed in transfected cells; host or cells: CHO (M1-CHO)
# T2 sequence (P11229 1-460): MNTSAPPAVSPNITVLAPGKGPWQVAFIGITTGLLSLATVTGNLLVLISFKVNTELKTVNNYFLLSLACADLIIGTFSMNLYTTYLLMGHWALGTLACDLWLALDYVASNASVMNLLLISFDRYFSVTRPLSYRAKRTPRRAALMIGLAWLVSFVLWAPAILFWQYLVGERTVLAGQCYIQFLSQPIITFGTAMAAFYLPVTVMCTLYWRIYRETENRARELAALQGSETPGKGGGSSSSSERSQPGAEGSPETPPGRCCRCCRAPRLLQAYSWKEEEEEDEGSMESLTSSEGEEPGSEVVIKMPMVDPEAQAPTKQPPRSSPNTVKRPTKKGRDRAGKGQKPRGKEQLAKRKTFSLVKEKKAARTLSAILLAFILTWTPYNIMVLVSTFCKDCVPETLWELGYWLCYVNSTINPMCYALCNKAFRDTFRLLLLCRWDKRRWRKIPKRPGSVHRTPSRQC
# How it was run: as §1
# [3] = target: T3, M4 muscarinic receptor (Homo sapiens, UniProt P08173); assay: Functional mobilization of intracellular calcium (FLIPR) in CHO cells expressing M4; details: for M4 Activity: CHO cells expressing M4, FLIPR calcium assay; for Emax: CHO, 100% efficacy = maximum response obtained with the Carbachol control
# T3 construct: expressed in transfected cells; host or cells: CHO (M4-CHO)
# T3 sequence (P08173 1-479): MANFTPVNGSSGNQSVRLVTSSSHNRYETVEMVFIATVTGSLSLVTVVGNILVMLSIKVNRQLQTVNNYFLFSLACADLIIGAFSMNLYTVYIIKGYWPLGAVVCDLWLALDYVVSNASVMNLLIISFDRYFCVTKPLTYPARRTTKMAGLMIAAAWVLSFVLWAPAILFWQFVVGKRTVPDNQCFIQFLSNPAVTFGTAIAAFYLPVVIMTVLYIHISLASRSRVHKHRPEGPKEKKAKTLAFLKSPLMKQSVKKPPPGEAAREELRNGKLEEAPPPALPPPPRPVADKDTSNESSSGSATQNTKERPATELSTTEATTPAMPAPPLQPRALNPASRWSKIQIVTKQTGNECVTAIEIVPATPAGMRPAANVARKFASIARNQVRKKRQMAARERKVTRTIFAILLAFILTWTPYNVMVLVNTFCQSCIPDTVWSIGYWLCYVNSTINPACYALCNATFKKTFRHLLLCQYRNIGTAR
# How it was run: as §1
# [4] = target: T4, M2 muscarinic receptor (Homo sapiens, UniProt P08172); assay: Functional mobilization of intracellular calcium (FLIPR) in CHO cells expressing M2; details: for M2 Activity: CHO cells expressing M2, FLIPR calcium assay; for Emax: CHO, 100% efficacy = maximum response obtained with the Carbachol control
# T4 construct: expressed in transfected cells; host or cells: CHO (M2-CHO)
# T4 sequence (P08172 1-466): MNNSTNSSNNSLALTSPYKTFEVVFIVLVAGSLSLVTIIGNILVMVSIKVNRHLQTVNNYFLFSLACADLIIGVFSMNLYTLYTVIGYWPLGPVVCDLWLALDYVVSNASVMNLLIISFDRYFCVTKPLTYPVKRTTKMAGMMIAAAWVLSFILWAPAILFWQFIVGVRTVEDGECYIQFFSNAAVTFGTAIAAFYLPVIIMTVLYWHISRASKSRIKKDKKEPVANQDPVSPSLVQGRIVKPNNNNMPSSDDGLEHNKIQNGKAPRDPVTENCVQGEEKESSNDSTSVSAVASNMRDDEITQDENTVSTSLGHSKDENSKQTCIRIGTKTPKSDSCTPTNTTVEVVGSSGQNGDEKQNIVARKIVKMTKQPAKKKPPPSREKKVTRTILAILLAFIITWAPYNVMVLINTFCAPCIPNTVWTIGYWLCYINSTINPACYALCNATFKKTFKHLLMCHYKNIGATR
# How it was run: as §1
SMILES,M3 Activity [1],Emax [1] [%],M1 Activity [2],Emax [2] [%],M4 Activity [3],Emax [3] [%],M2 Activity [4],Emax [4] [%]
CCN(C(C)=O)[C@H]1CCC2(CCN(CCC(C)C)CC2)c2ccccc21 [compound 213],+ (activity was measured to be greater than 5.0 μM),< 25,++ (activity was measured to be from 2.0 μM to 5.0 μM),25 to 100,+++ (activity was measured to be less than 2.0 μM),25 to 100,+ (activity was measured to be greater than 5.0 μM),< 25
CC(C)(C)CCN1CCC2(CC[C@@H](NC(=O)C3CC3)c3ccc(F)cc32)CC1 [compound 214],+ (activity was measured to be greater than 5.0 μM),< 25,+++ (activity was measured to be less than 2.0 μM),25 to 100,+++ (activity was measured to be less than 2.0 μM),25 to 100,+++ (activity was measured to be less than 2.0 μM),< 25
COCCC(=O)N[C@H]1CCC2(CCN(CCC(C)(C)C)CC2)c2cc(F)ccc21 [compound 215],+ (activity was measured to be greater than 5.0 μM),< 25,+++ (activity was measured to be less than 2.0 μM),25 to 100,+++ (activity was measured to be less than 2.0 μM),25 to 100,+++ (activity was measured to be less than 2.0 μM),25 to 100
Cc1cc(C(=O)N[C@@H]2CCC3(CCN(CCC(C)(C)C)CC3)c3ccccc32)nn1C [compound 216],+ (activity was measured to be greater than 5.0 μM),< 25,++ (activity was measured to be from 2.0 μM to 5.0 μM),25 to 100,+++ (activity was measured to be less than 2.0 μM),25 to 100,++ (activity was measured to be from 2.0 μM to 5.0 μM),25 to 100
CC(C)(C)CCN1CCC2(CC[C@@H](NC(=O)C3CCOCC3)c3ccc(F)cc32)CC1 [compound 217],+ (activity was measured to be greater than 5.0 μM),< 25,++ (activity was measured to be from 2.0 μM to 5.0 μM),25 to 100,+++ (activity was measured to be less than 2.0 μM),25 to 100,+ (activity was measured to be greater than 5.0 μM),< 25
CC(=O)N(C)[C@H]1CCC2(CCN(CCC(C)(C)C)CC2)c2cc(F)ccc21 [compound 218],+ (activity was measured to be greater than 5.0 μM),< 25,+++ (activity was measured to be less than 2.0 μM),25 to 100,+++ (activity was measured to be less than 2.0 μM),25 to 100,+++ (activity was measured to be less than 2.0 μM),< 25
Cn1cncc1C(=O)N[C@H]1CCC2(CCN(CCC(C)(C)C)CC2)c2ccccc21 [compound 219],+ (activity was measured to be greater than 5.0 μM),< 25,+++ (activity was measured to be less than 2.0 μM),25 to 100,+++ (activity was measured to be less than 2.0 μM),25 to 100,+++ (activity was measured to be less than 2.0 μM),25 to 100
CC(C)(C)CCN1CCC2(CC[C@@H](NC(=O)C3CCCO3)c3ccccc32)CC1 (stereo partly drawn) [compound 220],+ (activity was measured to be greater than 5.0 μM),< 25,+ (activity was measured to be greater than 5.0 μM),< 25,+++ (activity was measured to be less than 2.0 μM),25 to 100,+ (activity was measured to be greater than 5.0 μM),< 25
CCN(C(=O)CCOC)[C@H]1CCC2(CCN(CCC(C)(C)C)CC2)c2ccccc21 [compound 221],+ (activity was measured to be greater than 5.0 μM),< 25,++ (activity was measured to be from 2.0 μM to 5.0 μM),25 to 100,+++ (activity was measured to be less than 2.0 μM),25 to 100,+ (activity was measured to be greater than 5.0 μM),< 25
CC(C)(C)CCN1CCC2(CC[C@H](N3CCCCC3=O)c3ccc(F)cc32)CC1 [compound 222],+ (activity was measured to be greater than 5.0 μM),< 25,+++ (activity was measured to be less than 2.0 μM),25 to 100,+++ (activity was measured to be less than 2.0 μM),25 to 100,+ (activity was measured to be greater than 5.0 μM),< 25
CCN(C(=O)Cc1ccncc1)[C@H]1CCC2(CCN(CCC(C)(C)C)CC2)c2ccccc21 [compound 223],+ (activity was measured to be greater than 5.0 μM),< 25,+ (activity was measured to be greater than 5.0 μM),25 to 100,+++ (activity was measured to be less than 2.0 μM),25 to 100,+ (activity was measured to be greater than 5.0 μM),< 25
CC(C)(C)CCN1CCC2(CC[C@H](NC(=O)C(F)(F)F)c3ccccc32)CC1 [compound 224],+ (activity was measured to be greater than 5.0 μM),< 25,+++ (activity was measured to be less than 2.0 μM),25 to 100,+++ (activity was measured to be less than 2.0 μM),25 to 100,+ (activity was measured to be greater than 5.0 μM),< 25
CC(C)(C)CCN1CCC2(CC1)C[C@H](NC(=O)C1CCCC1)c1ccccc12 [compound 225],+ (activity was measured to be greater than 5.0 μM),< 25,+ (activity was measured to be greater than 5.0 μM),< 25,+ (activity was measured to be greater than 5.0 μM),< 25,+ (activity was measured to be greater than 5.0 μM),< 25
CCN(CC)C(=O)CN1CCC2(CC1)C[C@H](NC(C)=O)c1ccccc12 [compound 226],+ (activity was measured to be greater than 5.0 μM),< 25,+ (activity was measured to be greater than 5.0 μM),< 25,+ (activity was measured to be greater than 5.0 μM),< 25,+ (activity was measured to be greater than 5.0 μM),< 25
CCCC(=O)N[C@H]1CC2(CCN(CCC(C)C)CC2)c2ccccc21 [compound 227],+ (activity was measured to be greater than 5.0 μM),< 25,+ (activity was measured to be greater than 5.0 μM),< 25,+ (activity was measured to be greater than 5.0 μM),< 25,+ (activity was measured to be greater than 5.0 μM),< 25
